Assay results taken from ChEMBL document CHEMBL1201862, “PubChem BioAssay data set” (2004).
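Growth conditions: 96-well plates. Treatment: test compound, 48 hours, 5 concentrations. Analysis: linear interpolation between bracketing concentrations; unreached endpoints set to highest concentration. At the GI50, growth is halved.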 The source made the active and inactive calls. No stated cut-off is given here; in the data, active = GI50 up to about 1.1 µM and inactive = higher.

Experiments:
Assay in all cases: growth of human tumour cells (NCI), 48 h
HT-29 = tested on: HT-29
LOX IMVI = tested on: LOX IMVI
LXFL 529 = tested on: LXFL 529
HOP-62 = tested on: HOP-62
TK-10 = tested on: TK-10
DLD-1 = tested on: DLD-1
NCI-H460 = tested on: NCI-H460
U-251 = tested on: U-251
SNB-75 = tested on: SNB-75
OVCAR-5 = tested on: OVCAR-5
786-0 = tested on: 786-0
HL-60 = tested on: HL-60
UACC-257 = tested on: UACC-257
ACHN = tested on: ACHN
DMS-114 = tested on: DMS-114
HCT-116 = tested on: HCT-116
SK-MEL-5 = tested on: SK-MEL-5
KM-20L2 = tested on: KM-20L2
UACC-62 = tested on: UACC-62
NCI-H23 = tested on: NCI-H23
DMS-273 = tested on: DMS-273
SNB-19 = tested on: SNB-19
UO-31 = tested on: UO-31
SW-620 = tested on: SW-620
SF-268 = tested on: SF-268
SK-OV-3 = tested on: SK-OV-3
M19-MEL = tested on: M19-MEL
SK-MEL-2 = tested on: SK-MEL-2
SF-539 = tested on: SF-539
EKVX = tested on: EKVX
OVCAR-4 = tested on: OVCAR-4
HCC 2998 = tested on: HCC 2998
RXF 393 = tested on: RXF 393
OVCAR-3 = tested on: OVCAR-3
COLO 205 = tested on: COLO 205
HCT-15 = tested on: HCT-15
A549 = tested on: A549
SNB-78 = tested on: SNB-78
OVCAR-8 = tested on: OVCAR-8
SF-295 = tested on: SF-295
HOP-18 = tested on: HOP-18
Malme-3M = tested on: Malme-3M
CAKI-1 = tested on: CAKI-1
RPMI-8226 = tested on: RPMI-8226
SN12C = tested on: SN12C
K562 = tested on: K562
KM12 = tested on: KM12
CCRF-CEM = tested on: CCRF-CEM
MOLT-4 = tested on: MOLT-4
IGROV-1 = tested on: IGROV-1
M14 = tested on: M14
NCI-H522 = tested on: NCI-H522
NCI-H226 = tested on: NCI-H226
A498 = tested on: A498
SK-MEL-28 = tested on: SK-MEL-28

Structure (SMILES): CCOC(C)OCC#CCCBr (stereo not drawn)
- GI50 (HT-29): > 100 µM (inactive)
- GI50 (LOX IMVI): > 100 µM (inactive)
- GI50 (LXFL 529): > 100 µM (inactive)
- GI50 (HOP-62): > 100 µM (inactive)
- GI50 (TK-10): > 100 µM (inactive)
- GI50 (DLD-1): > 100 µM (inactive)
- GI50 (NCI-H460): > 100 µM (inactive)
- GI50 (U-251): > 100 µM (inactive)
- GI50 (SNB-75): 55.3 µM (inactive)
- GI50 (OVCAR-5): > 100 µM (inactive)
- GI50 (786-0): > 100 µM (inactive)
- GI50 (HL-60): 80.5 µM (inactive)
- GI50 (UACC-257): > 100 µM (inactive)
- GI50 (ACHN): > 100 µM (inactive)
- GI50 (DMS-114): 79.1 µM (inactive)
- GI50 (HCT-116): > 100 µM (inactive)
- GI50 (SK-MEL-5): > 100 µM (inactive)
- GI50 (KM-20L2): > 100 µM (inactive)
- GI50 (UACC-62): > 100 µM (inactive)
- GI50 (NCI-H23): > 100 µM (inactive)
- GI50 (DMS-273): > 100 µM (inactive)
- GI50 (SNB-19): > 100 µM (inactive)
- GI50 (UO-31): > 100 µM (inactive)
- GI50 (SW-620): > 100 µM (inactive)
- GI50 (SF-268): > 100 µM (inactive)
- GI50 (SK-OV-3): > 100 µM (inactive)
- GI50 (M19-MEL): > 100 µM (inactive)
- GI50 (SK-MEL-2): > 100 µM (inactive)
- GI50 (SF-539): > 100 µM (inactive)
- GI50 (EKVX): > 100 µM (inactive)
- GI50 (OVCAR-4): > 100 µM (inactive)
- GI50 (HCC 2998): > 100 µM (inactive)
- GI50 (RXF 393): > 100 µM (inactive)
- GI50 (OVCAR-3): > 100 µM (inactive)
- GI50 (COLO 205): > 100 µM (inactive)
- GI50 (HCT-15): > 100 µM
- GI50 (A549): > 100 µM (inactive)
- GI50 (SNB-78): > 100 µM (inactive)
- GI50 (OVCAR-8): > 100 µM (inactive)
- GI50 (SF-295): > 100 µM (inactive)
- GI50 (HOP-18): > 100 µM (inactive)
- GI50 (Malme-3M): > 100 µM (inactive)
- GI50 (CAKI-1): > 100 µM (inactive)
- GI50 (RPMI-8226): > 100 µM (inactive)
- GI50 (SN12C): > 100 µM (inactive)
- GI50 (K562): 59.7 µM (inactive)
- GI50 (KM12): > 100 µM (inactive)
- GI50 (CCRF-CEM): 37.1 µM (inactive)
- GI50 (MOLT-4): > 100 µM (inactive)
- GI50 (IGROV-1): > 100 µM (inactive)
- GI50 (M14): > 100 µM (inactive)

Structure (SMILES): OC12c3ccccc3C1CCCCCCCCCC21OCCO1 (stereo not drawn)
- GI50 (HT-29): > 100 µM (inactive)
- GI50 (LOX IMVI): > 100 µM (inactive)
- GI50 (LXFL 529): > 100 µM (inactive)
- GI50 (HOP-62): > 100 µM (inactive)
- GI50 (TK-10): > 100 µM (inactive)
- GI50 (NCI-H460): > 100 µM (inactive)
- GI50 (U-251): > 100 µM (inactive)
- GI50 (SNB-75): > 100 µM (inactive)
- GI50 (OVCAR-5): > 100 µM (inactive)
- GI50 (NCI-H522): > 100 µM (inactive)
- GI50 (786-0): > 100 µM (inactive)
- GI50 (UACC-257): > 100 µM (inactive)
- GI50 (ACHN): > 100 µM (inactive)
- GI50 (DMS-114): > 100 µM (inactive)
- GI50 (NCI-H226): > 100 µM (inactive)
- GI50 (A498): > 100 µM (inactive)
- GI50 (HCT-116): > 100 µM (inactive)
- GI50 (SK-MEL-5): > 100 µM (inactive)
- GI50 (KM-20L2): > 100 µM (inactive)
- GI50 (UACC-62): > 100 µM (inactive)
- GI50 (NCI-H23): > 100 µM (inactive)
- GI50 (DMS-273): > 100 µM (inactive)
- GI50 (SNB-19): > 100 µM (inactive)
- GI50 (UO-31): > 100 µM (inactive)
- GI50 (SW-620): > 100 µM (inactive)
- GI50 (SF-268): > 100 µM (inactive)
- GI50 (SK-OV-3): > 100 µM (inactive)
- GI50 (M19-MEL): > 100 µM (inactive)
- GI50 (SK-MEL-2): > 100 µM (inactive)
- GI50 (SF-539): > 100 µM (inactive)
- GI50 (OVCAR-4): > 100 µM (inactive)
- GI50 (HCC 2998): > 100 µM (inactive)
- GI50 (RXF 393): > 100 µM (inactive)
- GI50 (OVCAR-3): > 100 µM (inactive)
- GI50 (COLO 205): > 100 µM (inactive)
- GI50 (HCT-15): > 100 µM
- GI50 (A549): > 100 µM (inactive)
- GI50 (SNB-78): > 100 µM (inactive)
- GI50 (OVCAR-8): > 100 µM (inactive)
- GI50 (SF-295): > 100 µM (inactive)
- GI50 (HOP-18): > 100 µM (inactive)
- GI50 (Malme-3M): > 100 µM (inactive)
- GI50 (CAKI-1): > 100 µM (inactive)
- GI50 (RPMI-8226): > 100 µM (inactive)
- GI50 (SK-MEL-28): > 100 µM (inactive)
- GI50 (SN12C): > 100 µM (inactive)
- GI50 (K562): > 100 µM (inactive)
- GI50 (KM12): > 100 µM (inactive)
- GI50 (CCRF-CEM): > 100 µM (inactive)
- GI50 (MOLT-4): > 100 µM (inactive)
- GI50 (IGROV-1): > 100 µM (inactive)
- GI50 (M14): > 100 µM (inactive)
